PubChem BioAssay (NCI)
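GI50 = concentration required for 50% inhibition of growth. TGI: total growth inhibition.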

Experiments:
Assay in all cases: inhibition of tumour cell growth, NCI panel, 384-well format
[1] = test system: 786-0 renal
[2] = test system: A498 renal
[3] = test system: A549 NSCLC
[4] = test system: ACHN renal
[5] = test system: CAKI-1 renal
[6] = test system: CCRF-CEM leukemia
[7] = test system: DU-145 prostate
[8] = test system: EKVX NSCLC
[9] = test system: HCC-2998 colon
[10] = test system: HCT-15 colon
[11] = test system: HL-60(TB) leukemia
[12] = test system: HOP-62 NSCLC
[13] = test system: HOP-92 NSCLC
[14] = test system: HS 578T breast
[15] = test system: HT29 colon
[16] = test system: IGROV1 ovarian
[17] = test system: K-562 leukemia
[18] = test system: KM12 colon
[19] = test system: LOX IMVI melanoma
[20] = test system: MALME-3M melanoma
[21] = test system: MDA-MB-231 breast
[22] = test system: MDA-MB-468 breast
[23] = test system: MOLT-4 leukemia
[24] = test system: NCI-H226 lung
[25] = test system: NCI-H23 lung
[26] = test system: NCI-H322M lung
[27] = test system: NCI-H460 NSCLC
[28] = test system: NCI-H522 lung
[29] = test system: NCI/ADR-RES ovarian
[30] = test system: OVCAR-3 ovarian
[31] = test system: OVCAR-5 ovarian
[32] = test system: OVCAR-8 ovarian
[33] = test system: RXF 393 renal
[34] = test system: SF-295 CNS
[35] = test system: SF-539 CNS
[36] = test system: SK-MEL-2 melanoma
[37] = test system: SK-MEL-28 melanoma
[38] = test system: SK-MEL-5 melanoma
[39] = test system: SK-OV-3 ovarian
[40] = test system: SN12C renal
[41] = test system: SNB-19 CNS
[42] = test system: SNB-75 CNS
[43] = test system: SR leukemia
[44] = test system: TK-10 renal
[45] = test system: U251 glioblastoma
[46] = test system: UACC-257 melanoma
[47] = test system: UACC-62 melanoma

Compound `COC(=O)c1ccc([C@H]2c3[nH]c4ccccc4c3C[C@H](C(=O)OC)N2C(=O)CCl)cc1` has a GI50 [1] of 10.4 nM, a TGI [1] of 25 nM and a GI50 [2] of 20.5 nM. It also gave a TGI [2] of 43.8 nM, a GI50 [3] of 119 nM and a TGI [3] of 339 nM. The GI50 [4] was under 10 nM, the TGI [4] was under 10 nM and the GI50 [5] was under 10 nM. It also gave a TGI [5] of under 10 nM, a GI50 [6] of under 10 nM and a TGI [6] of 15 nM. It also gave a GI50 [7] of 336 nM, a TGI [7] of 1640 nM and a GI50 [8] of under 10 nM. The TGI [8] was 22.4 nM, the GI50 [9] was 30.3 nM and the TGI [9] was 177 nM. For the same compound, the GI50 [10] was 157 nM, the TGI [10] was 913 nM and the GI50 [11] was under 10 nM. It also gave a TGI [11] of 10.2 nM, a GI50 [12] of 10.7 nM and a TGI [12] of 35.5 nM. The GI50 [13] was under 10 nM, the TGI [13] was under 10 nM and the GI50 [14] was 131 nM. It also gave a TGI [14] of 311 nM, a GI50 [15] of 227 nM and a TGI [15] of 707 nM. For the same compound, the GI50 [16] was 14.2 nM, the TGI [16] was 27.5 nM and the GI50 [17] was 46.2 nM. It also gave a TGI [17] of 382 nM, a GI50 [18] of 18.3 nM and a TGI [18] of 37.8 nM. It also gave a GI50 [19] of under 10 nM, a TGI [19] of under 10 nM and a GI50 [20] of 14.8 nM. The TGI [20] was 29 nM, the GI50 [21] was 14.4 nM and the TGI [21] was 28.6 nM. It also gave a GI50 [22] of under 10 nM, a TGI [22] of 19.5 nM and a GI50 [23] of 15.5 nM. The TGI [23] was 29.4 nM, the GI50 [24] was 75.1 nM and the TGI [24] was 449 nM. The GI50 [25] was under 10 nM, the TGI [25] was 12 nM and the GI50 [26] was 1140 nM. It also gave a TGI [26] of 2420 nM, a GI50 [27] of 574 nM and a TGI [27] of 1940 nM. It also gave a GI50 [28] of under 10 nM, a TGI [28] of under 10 nM and a GI50 [29] of 25.1 nM. The TGI [29] was 102 nM, the GI50 [30] was 14.3 nM and the TGI [30] was 28.8 nM. For the same compound, the GI50 [31] was 289 nM, the TGI [31] was 1580 nM and the GI50 [32] was 66.5 nM. It also gave a TGI [32] of 248 nM, a GI50 [33] of under 10 nM and a TGI [33] of 15.2 nM. For the same compound, the GI50 [34] was 103 nM, the TGI [34] was 221 nM and the GI50 [35] was 33.9 nM. It also gave a TGI [35] of 114 nM, a GI50 [36] of 51.7 nM and a TGI [36] of 185 nM. For the same compound, the GI50 [37] was 1450 nM, the TGI [37] was 2830 nM and the GI50 [38] was 479 nM. It also gave a TGI [38] of 1760 nM, a GI50 [39] of 158 nM and a TGI [39] of 299 nM. For the same compound, the GI50 [40] was 466 nM, the TGI [40] was 1830 nM and the GI50 [41] was 1300 nM. The TGI [41] was 2590 nM, the GI50 [42] was 18.5 nM and the TGI [42] was 41.4 nM. It also gave a GI50 [43] of under 10 nM, a TGI [43] of 20.5 nM and a GI50 [44] of 15.8 nM. For the same compound, the TGI [44] was 33.6 nM, the GI50 [45] was 119 nM and the TGI [45] was 399 nM. It also gave a GI50 [46] of 86.8 nM, a TGI [46] of 336 nM and a GI50 [47] of 19.3 nM. It also gave a TGI [47] of 41.6 nM.
